Patent publication US11465978B2, “Anthranilic amides and the use thereof” (THE ADMINISTRATORS OF THE TULANE EDUCATIONAL FUND, priority 2013, dated 2022)

Legend:
MDA-MB 231 cells [1] = assay: Morphology (mesenchymal to epithelial phenotype) during proliferation testing; assay type: cell-based
Method: (§1) Proliferation studies were conducted using MDA-MB 231 cells, as they express the triple negative cancer phenotype. Compound 3 was selected due to its potency in inhibition of both MEK1/2 and MEK5. MDA-MB 231 cells were plated at 10,000 cells per well in a 96 well TC plate in 5% Charcoal-Dextran stripped media and incubated overnight at 37° C. in 5% CO2. The cells were treated with drug or vehicle the following day. Plates were harvested on days 3, 5 and 7 and stained with Crystal Violet. […] The cells were washed, lysed, and the absorbance of Crystal Violet sequestered in living cells was determined at […]. Wells were conducted in duplicate. Experiments were run in triplicate. Cells were normalized to initial cell count.
Examination of the MDA-MB 231 cells during the proliferation testing period was conducted. Untreated (DMSO) cells retained an elongated spiky cellular morphology characteristic of the mobile and invasive mesenchymal phenotype. […] The observed phenotypic conversion persisted for 14 days without reversion back to the mesenchymal phenotype, see FIG. 12.

MDA-MB 231 cells [2] = assay: Crystal violet proliferation study; assay type: cell-based
Method: as §1, with “FIG. 11 is a graph showing the results of” for “Proliferation studies were conducted using”, “proliferation studies. MDA-MB 231 cells were used” for “cells,”, “to” for “to its”
Proliferation studies were conducted using MDA-MB 231 cells, as they express the triple negative cancer phenotype. […] The cells were washed, lysed, and the absorbance of Crystal Violet sequestered in living cells was determined at […]. […]
Triple-negative breast cancer (TNBC) cells MDA-MB-231 were seeded in 96-well plates at a density of 2,000 cells per well in 5% charcoal-stripped phenol free DMEM, allowed to attach overnight, and subsequently treated with DMSO and MEK inhibitor compounds in duplicate. […] Cells were washed, lysed with 33% acetic acid, and the absorbance was read at 630 nm in a Biotek Synergy plate reader. […]

MDA-MB-231 xenograft = assay: Animal xenograft study, tumor volume; assay type: in vivo, SCID/beige female mice; conditions: SCID female mice, 1×10^6 MDA-MB231 cells bilaterally, 25 mg/kg on day 0, 30 days
Method: End point tumor volume for SCID female mice injected bilaterally with 1×10^6 MDA-MB231 cells, n=10. Animals were treated on day 0 (cell injection day) with either DMSO or SC-1-151 (25 mg/kg). Tumor size was measured biweekly for 30 days using a digital caliper. Bars represent final average tumor volume±SEM.
Immune-compromised SCID/beige female mice (29-32 days old) were obtained from Charles River Laboratories (Wilmington, Mass.). The animals were allowed a period of adaptation in a sterile and pathogen-free environment with food and water ad libitum. Breast cancer cells MDA-MB-231 were grown in 5% FBS charcoal-stripped DMEM for five days then harvested. Viable cells were mixed with PBS and Matrigel Reduced Factors (BD Biosciences, San Jose, Calif.). Injections (1×10^6 cells/injection) were made bilaterally into the mammary fat pad on day 0 (May 7, 2013). All the procedures in animals were carried out under anesthesia using a mix of isoflurane and oxygen delivered by mask. Animals were treated on day 0 with either DMSO or SC-1-151 (25 mg/kg). Tumor size was measured biweekly for 30 days using a digital caliper. Tumor volume was calculated using the following formula: 4/3πLM^2, where L is the larger radius and M is the smaller radius. On day 31, tumors were excised and blocked in OCT compound. Mice were monitored daily to insure survival after the surgery. […]

Mia-PaCa2 cells = assay: Crystal violet morphology of pancreatic cancer cells; assay type: cell-based; conditions: Mia-PaCa2, 3 days
Method: (A) Mia-PaCa2 cells were seeded in a 96-well plate at a density of 1,000 cells per well and treated with vehicle (DMSO) and SC-1-151. After 3 days, cells were fixed with glutaraldehyde and stained with crystal violet. (B) qPCR for EMT-regulating genes following SC-1-151 treatment. Pancreatic cancer cells were grown in 5% CS phenol free DMEM for 48 hours before treatment with vehicle (DMSO) or SC-1-151 (1 μM) for 24 hours. Cycle number was normalized to R-actin and vehicle-treated cells scaled to 1, n=3.

NC(=O)c1ccc(F)c(F)c1Nc1ccc(I)cc1F [Compound 3, 3,4-difluoro-2-((2-fluoro-4-iodophenyl)amino)benzamide]
conversion of mesenchymal to epithelial cellular morphology (MDA-MB 231 cells [1]): more rounded cellular morphology
persistence of phenotypic conversion without reversion to mesenchymal phenotype (MDA-MB 231 cells [1]): 14 days
conversion of cell phenotype (MDA-MB 231 cells [1]; 10 μM): marked conversion of nearly all cells back to a more rounded phenotype
reduction in growth relative to untreated (DMSO) (MDA-MB 231 cells [2]; 7 day time point): 70%
overt cell death (MDA-MB 231 cells [2]; even at saturation concentrations): No overt cell death
tumorigenesis in vivo (end point tumor volume) (MDA-MB-231 xenograft): decreases tumorigenesis
phenotype of pancreatic cancer cells (Mia-PaCa2 cells): induces an epithelial phenotype
